Measured values reported in US9321767B2, “Azabenzimidazoles as respiratory syncytial virus antiviral agents” (JANSSEN SCIENCES IRELAND UC, priority 2010, dated 2016).

Columns and labels:
HeLa cells = assay: Cytotoxicity in HeLa cells, ATP content (ATPlite kit); assay type: cell-based; settings: HeLa cells, three days incubation, ATP content
Method: (§1) Black 96-well clear-bottom microtiter plates (Corning, Amsterdam, The Netherlands) were filled in duplicate using a customized robot system with serial 4-fold dilutions of compound in a final volume of 50 μl culture medium [RPMI medium without phenol red, 10% FBS, 0.04% gentamycin (50 mg/mL) and 0.5% DMSO]. Then, 100 μl of a HeLa cell suspension (5×10^4 cells/mL) in culture medium was added to each well followed by the addition of 50 μl rgRSV224 (MOI=0.02) virus in culture medium using a multidrop dispenser (Thermo Scientific, Erembodegem, Belgium). rgRSV224 virus is an engineered virus that includes an additional GFP gene (Hallak et al, 2000) and was in-licensed from the NIH (Bethesda, Md., USA). Medium, virus- and mock-infected controls were included in each test. Cells were incubated at 37° C. in a 5% CO2 atmosphere. Three days post-virus exposure, viral replication was quantified by measuring GFP expression in the cells by a MSM laser microscope (Tibotec, Beerse, Belgium). The EC50 was defined as the 50% inhibitory concentration for GFP expression. In parallel, compounds were incubated for three days in a set of white 96-well microtitier plates (Corning) and the cytotoxicity of compounds in HeLa cells was determined by measuring the ATP content of the cells using the ATPlite kit (PerkinElmer, Zaventem, Belgium) according to the manufacturer's instructions. The CC50 was defined as the 50% concentration for cytotoxicity.

rgRSV224 virus = assay: microbe, parasite or virus in culture; assay type: cell-based, respiratory syncytial virus (RSV); settings: human respiratory syncytial virus, HeLa, 72 h, read-out: RSV-wt_EC50
Method: as §1

Row | Compound | TOX-HELA_EC50 (HeLa cells) | EC50 (rgRSV224 virus)
1 | COC(=O)c1cnc2c(c1)nc(Cn1c(=O)n(C3CC3)c3ccncc31)n2CCC(C)C [Compound 26, methyl 2-((1-cyclopropyl-2-oxo-1H-imidazo[4,5-c]pyridin-3(2H)-yl)methyl)-3-isopentyl-3H-imidazo[4,5-b]pyridine-6-carboxylate] | >98.3603 µM | 8610 nM
2 | CC(C)CCn1c(Cn2c(=O)n(C3CC3)c3ccncc32)nc2cc(C(=O)O)cnc21 [Compound 28, 2-((1-cyclopropyl-2-oxo-1H-imidazo[4,5-c]pyridin-3(2H)-yl)methyl)-3-isopentyl-3H-imidazo[4,5-b]pyridine-6-carboxylic acid] | >49.1802 µM | > 49200 nM
3 | O=c1n(Cc2nc3nc(Cl)ccc3n2CCCC(F)(F)F)c2cnccc2n1C1CC1 [Compound 39, 3-((5-chloro-1-(4,4,4-trifluorobutyl)-1H-imidazo[4,5-b]pyridin-2-yl)methyl)-1-cyclopropyl-1H-imidazo[4,5-c]pyridin-2(3H)-one] | >98.3603 µM | 0.96 nM
4 | CC(C)CCn1c(Cn2c(=O)n(C3CC3)c3ccncc32)nc2ccncc21 [Compound 34] | >98.3603 µM | 74 nM
5 | CC(C)CCn1c(Cn2c(=O)n(C(C)C)c3ccnc(C#N)c32)nc2cccnc21 [Compound 29, 3-((3-isopentyl-3H-imidazo[4,5-b]pyridin-2-yl)methyl)-1-isopropyl-2-oxo-2,3-dihydro-1H-imidazo[4,5-c]pyridine-4-carbonitrile] | >98.3603 µM | > 98400 nM
6 | CC(C)CCn1c(Cn2c(=O)n(C3COC3)c3ccncc32)nc2cc(Br)cnc21 [Compound 18, 3-((6-bromo-3-isopentyl-3H-imidazo[4,5-b]pyridin-2-yl)methyl)-1-(oxetan-3-yl)-1H-imidazo[4,5-c]pyridin-2(3H)-one] | >9.836 µM | 17.3 nM
7 | CC(C)CCn1c(Cn2c(=O)n(C3CC3)c3ccncc32)nc2cc(CN)cnc21 [Compound 17, 3-((6-(aminomethyl)-3-isopentyl-3H-imidazo[4,5-b]pyridine-2-yl)methyl)-1-cyclopropyl-1H-imidazo[4,5-c]pyridin-2(3H)-one] | >98.3603 µM | 11.8 nM
8 | CC(C)CCn1c(Cn2c(=O)n(C(C)C)c3ccnc(Cl)c32)nc2cccnc21 [Compound 25, 4-chloro-3-((3-isopentyl-3H-imidazo[4,5-b]pyridin-2-yl)methyl)-1-isopropyl-1H-imidazo[4,5-c]pyridin-2(3H)-one] | >24.5901 µM | 8270 nM
9 | CC(C)(C)C(=O)OCCCCn1c(Cn2c(=O)n(C3CC3)c3ccncc32)nc2nc(Cl)ccc21 [Compound 3, 4-(5-chloro-2-((1-cyclopropyl-2-oxo-1H-imidazo[4,5-c]pyridin-3(2H)-yl)methyl)-1H-imidazo[4,5-b]pyridin-1yl)butyl pivalate] | >9.836 µM | 3.29 nM
10 | O=c1n(Cc2nc3cc(Br)cnc3n2CCCCO)c2cnccc2n1C1CC1 [Compound 19, 3-((6-bromo-3-(4-hydroxybutyl)-3H-imidazo[4,5-b]pyridin-2-yl)methyl)-1-cyclopropyl-1H-imidazo[4,5-c]pyridin-2(3H)-one] | >98.3603 µM | 19.1 nM
11 | O=c1n(Cc2nc3ncccc3n2CCCC(F)(F)F)c2cnccc2n1C1CC1 [Compound 41, 1-cyclopropyl-3-((1-(4,4,4-trifluorobutyl)-1H-imidazo[4,5-b]pyridin-2-yl)methyl)-1H-imidazo[4,5-c]pyridin-2(3H)-one] | >98.3603 µM | 7.1 nM
12 | O=c1n(Cc2nc3ncccc3n2CCCF)c2cnccc2n1C1CC1 [Compound 11] | >9.836 µM | 90.9 nM
13 | O=c1n(Cc2nc3cc(Br)cnc3n2CCCCO)c2cnccc2n1C1COC1 [Compound 20, 3-((6-bromo-3-(4-hydroxybutyl)-3H-imidazo[4,5-b]pyridin-2-yl)methyl)-1-(oxetan-3-yl)-1H-imidazo[4,5-c]pyridin-2(3H)-one] | >9.836 µM | 36.1 nM
14 | O=c1n(Cc2nc3cc(F)cnc3n2CCCCO)c2cnccc2n1C1CC1 [Compound 22, 1-cyclopropyl-3-((6-fluoro-3-(4-hydroxybutyl)-3H-imidazo[4,5-b]pyridin-2-yl)methyl)-1H-imidazo[4,5-c]pyridin-2(3H)-one] | >9.836 µM | 403 nM
15 | CC(C)CCn1c(Cn2c(=O)n(C3CC3)c3ccc(F)cc32)nc2cnccc21 [Compound 32] | >9.836 µM | 11.3 nM
16 | CN(C)c1nccc2c1nc(Cn1c(=O)n(C3CC3)c3ccncc31)n2CCCCO [Compound 37] | >9.836 µM | 274 nM
17 | CC(C)CCn1c(Cn2c(=O)n(C3CC3)c3ccncc32)nc2cccnc21 [Compound 24, 1-cyclopropyl-3-((3-isopentyl-3H-imidazo[4,5-b]pyridin-2-yl)methyl)-1H-imidazo[4,5-c]pyridin-2(3H)-one] | >98.3603 µM | 1220 nM
18 | CC(C)CCn1c(Cn2c(=O)n(C3CC3)c3ccncc32)nc2cc(Br)cnc21 [Compound 16, 3-((6-bromo-3-isopentyl-3H-imidazo[4,5-b]pyridin-2-yl)methyl)-1-cyclopropyl-1H-imidazo[4,5-c]pyridin-2(3H)-one] | >98.3603 µM | 8.81 nM
19 | O=c1n(Cc2nc3c(Cl)nccc3n2CCCCOCc2ccccc2)c2cnccc2n1C1CC1 [Compound 38, 3-((1-(4-benzyloxy)butyl)-4-chloro-1H-imidazo[4,5-c]pyridin-2-yl)methyl-1-cyclopropyl-1H-imidazo[4,5-c]pyridin-2(3H)-one] | >98.3603 µM | 1480 nM
20 | CC(C)CCn1c(Cn2c(=O)n(C3CC3)c3ccccc32)nc2ncccc21 [Compound 4, 1-cyclopropyl-3-((1-isopentyl-1H-imidazo[4,5-b]pyridin-2-yl)methyl)-1H-benzo[d]imidazol-2(3H)-one] | >9.836 µM | 7.08 nM
21 | CC(C)CCn1c(Cn2c(=O)n(C3CC3)c3ccncc32)nc2ncccc21 [Compound 5, 1-cyclopropyl-3-((1-isopentyl-1H-imidazo[4,5-b]pyridin-2-yl)methyl)-1H-imidazo[4,5-c]pyridin-2(3H)-one] | >98.3603 µM | 8.67 nM
22 | CC(C)CCn1c(Cn2c(=O)n(C3CC3)c3ccc(F)cc32)nc2nc(Cl)ccc21 [Compound 6, 3-((5-chloro-1-isopentyl-1H-imidazo[4,5-b]pyridin-2-yl)methyl)-1-cyclopropyl-5-fluoro-1H-benzo[d]imidazol-2(3H)-one] | >9.836 µM | 8.67 nM
23 | O=c1n(Cc2nc3ncccc3n2CCCCF)c2cnccc2n1C1CC1 [Compound 42, 1-cyclopropyl-3-((1-(4-fluorobutyl)-1H-imidazo[4,5-b]pyridin-2-yl)methyl)-1H-imidazo[4,5-c]pyridin-2(3H)-one] | >98.3603 µM | 5.2 nM
24 | CC(C)CCn1c(Cn2c(=O)n(C3COC3)c3ccncc32)nc2ncccc21 [Compound 9, 3-((1-isopentyl-1H-imidazo[4,5-b]pyridin-2-yl)methyl)-1-(oxetan-3-yl)-1H-imidazo[4,5-c]pyridin-2(3H)-one] | >9.836 µM | 58.1 nM
25 | COCCCn1c(Cn2c(=O)n(C3COC3)c3ccncc32)nc2ncccc21 [Compound 12, 3-((1-(3-methoxypropyl)-1H-imidazo[4,5-b]pyridin-2-yl)methyl)-1-(oxetan-3-yl)-1H-imidazo[4,5-c]pyridin-2(3H)-one] | >98.3603 µM | 1940 nM
26 | CS(=O)(=O)CCCn1c(Cn2c(=O)n(C3CC3)c3ccncc32)nc2ncccc21 [Compound 7, 1-cyclopropyl-3-((1-(3-(methylsulfonyl)propyl)-1H-imidazo[4,5-b]pyridin-2-yl)methyl)-1H-imidazo[4,5-c]pyridin-2(3H)-one] | >9.836 µM | 13.7 nM
27 | COCCCn1c(Cn2c(=O)n(C3CC3)c3ccc(F)cc32)nc2ncccc21 [Compound 15, 1-cyclopropyl-5-fluoro-3-((1-(3-methoxypropyl)-1H-imidazo[4,5-b]pyridin-2-yl)methyl)-1H-benzo[d]imidazol-2(3H)-one] | >98.3603 µM | 220 nM
28 | COCCCn1c(Cn2c(=O)n(C3CC3)c3ccncc32)nc2ncccc21 [Compound 10] | 4.756 µM | 89.3 nM
29 | CC(C)CCn1c(Cn2c(=O)n(C3CC3)c3ccncc32)nc2cc(B(O)O)cnc21 [Compound 23, 2-((1-cyclopropyl-2-oxo-1H-imidazo[4,5-c]pyridin-3(2H)-yl)methyl)-3-isopentyl-3H-imidazo[4,5-b]pyridin-6-ylboronic acid] | >98.3603 µM | 645 nM
30 | CC(C)CCn1c(Cn2c(=O)n(C3CC3)c3ccncc32)nc2cnccc21 [Compound 33] | >98.3603 µM | 30.4 nM
